These results are taken from patent US20200222474A1, “COMPOSITIONS AND METHODS FOR INCREASING PHYTOCHEMICAL BIOAVAILABLITY AND BIOACTIVITY” (North Carolina State University, priority 2017, published 2020).

SMILES strings stand for the structures.

One assay concerns L. acidophilus NCFM. In words: Growth of L. acidophilus NCFM on plant glycosides as single carbon source (OD600). It is filed as cell-based, Lactobacillus acidophilus. Conditions: SDM + 1% (w/v) carbohydrate (0.5% esculin), 37° C., 30 hours; corrected to medium without carbohydrate. How it is done:
For initial growth and gene expression studies, L. acidophilus NCFM was propagated three times in semi-defined medium (SDM) supplemented with either 1% or 0,5% (w/v) of the plant glycoside or carbohydrate (Table 1). For the RNA-seq analysis, cells were harvested by centrifugation (3,220×10 min, 25° C.) in the mid-exponential phase (OD600=0.6-0.8) and stored at −80° C. for subsequent RNA isolation. For the mass spectrometry metabolite analyses, 200 μt samples were taken at 0, 3, 6, 9, 12, and 24 hours of growth; cells were removed by centrifugation; and supernatants were stored at −80° C. for further analysis.
(§1) Phenotypic growth assays were performed using 1% (v/v) overnight cultures of L. acidophilus strains (Table 2) and other Lactobacillus species (Table 3) grown on SDM supplemented with 1% (w/v) glucose to inoculate 200 μL of SDM supplemented with 1% (w/v) of the examined carbohydrate (0.5% in the case of esculin) in 96-well microplate wells (Corning Costar, Corning, N.Y., USA) in duplicate or triplicate wells, respectively. The microplates were sealed with clear adhesive film, incubated at 37° C. in a Fluostar Optima microplate reader (BMG Labtech, Cary, N.C., USA), and the cell optical density (OD600) was monitored for 30 hours.
The growth of L. acidophilus NCFM was evaluated on twelve chemically diverse, nutritionally relevant and/or therapeutically active PGs 1; Table 1). FIG. 1A provides the structures and common sources of plant glycoside substrates described herein. The compounds that support growth of Lactobacillus acidophilus are in green. RI: β-D-Glcp; R2: Gentiobioside (β-D-Glcp-(1,6)-D-Glcp); R3: Rutinoside (α-L-Rhaf-(1,6)-D-Glcp). The graph in FIG. 1B depicts plant glycoside utilization analyzed by mass spectrometry and the growth as the maximum OD600. Due to the low solubility of polydatin, OD600 cannot be used as a growth metric and utilization of this compound is confirmed by the production of lactate as well as a high utilization level based on the metabolite analysis.

The next assay has as its system L. acidophilus LA-1. Briefly: Phenotypic growth assay (OD600). It is filed as cell-based. Conditions: SDM + 1% (w/v) carbohydrate (0.5% esculin), 37° C., 30 hours; corrected to medium without carbohydrate. How it is done:
as §1

For assay [1], the system named is L. amyloverus ATCC 33620, DSM 20531. Briefly: Phenotypic growth assay (OD600). Particulars: SDM + 1% (w/v) carbohydrate (0.5% esculin), 37° C., 30 hours; corrected to medium without carbohydrate. The assay is classed as cell-based. As to the method:
as §1

A further assay concerns L. animalis DSM 20602. Briefly: Phenotypic growth assay (OD600). It is filed as cell-based. Conditions: SDM + 1% (w/v) carbohydrate (0.5% esculin), 37° C., 30 hours; corrected to medium without carbohydrate. How it is done: as §1
Assay [2] relates to L. crispatus ATCC 33820, DSM 20584. In words: Phenotypic growth assay (OD600). It is filed as cell-based. Particulars: SDM + 1% (w/v) carbohydrate (0.5% esculin), 37° C., 30 hours; corrected to medium without carbohydrate. How it is done: as §1
The subject of a further assay is L. fermentum ATCC 14931. Briefly: Phenotypic growth assay (OD600). The assay is classed as cell-based. Conditions: SDM + 1% (w/v) carbohydrate (0.5% esculin), 37° C., 30 hours; corrected to medium without carbohydrate. How it is done:
as §1

In another assay the test system is L. gasseri ATCC 33323. Briefly: Phenotypic growth assay (OD600). Particulars: SDM + 1% (w/v) carbohydrate (0.5% esculin), 37° C., 30 hours; corrected to medium without carbohydrate. It is filed as cell-based. How it is done:
as §1

For the next assay, the system named is L. helveticus CNRZ32. In words: Phenotypic growth assay (OD600). The assay is classed as cell-based. Particulars: SDM + 1% (w/v) carbohydrate (0.5% esculin), 37° C., 30 hours; corrected to medium without carbohydrate. How it is done: as §1
Assay [3] concerns L. intestinalis Th4, ATCC 49335, DSM 6629. In words: Phenotypic growth assay (OD600). It is filed as cell-based. Conditions: SDM + 1% (w/v) carbohydrate (0.5% esculin), 37° C., 30 hours; corrected to medium without carbohydrate. How it is done:
as §1

The subject of assay [4] is L. jensenii ATCC 25258, 62G, DSM 20557. In words: Phenotypic growth assay (OD600). It is filed as cell-based. Particulars: SDM + 1% (w/v) carbohydrate (0.5% esculin), 37° C., 30 hours; corrected to medium without carbohydrate. As to the method: as §1
The subject of a further assay is L. johnsonii ATCC 33200. In words: Phenotypic growth assay (OD600). The assay is classed as cell-based. Particulars: SDM + 1% (w/v) carbohydrate (0.5% esculin), 37° C., 30 hours; corrected to medium without carbohydrate. As to the method:
as §1

Assay [5] deals with L. plantarum sp. plantarum ATCC 14917, LA70. Briefly: Phenotypic growth assay (OD600). The assay is classed as cell-based. Particulars: SDM + 1% (w/v) carbohydrate (0.5% esculin), 37° C., 30 hours; corrected to medium without carbohydrate. As to the method: as §1
Assay [6] has as its system L. reuteri (ATCC 23272, DSM 20016). Briefly: Phenotypic growth assay (OD600). The assay is classed as cell-based. Conditions: SDM + 1% (w/v) carbohydrate (0.5% esculin), 37° C., 30 hours; corrected to medium without carbohydrate. How it is done: as §1
Assay [7] relates to L. rhanmosus GG (ATCC 53103). In words: Phenotypic growth assay (OD600). The assay is classed as cell-based. Conditions: SDM + 1% (w/v) carbohydrate (0.5% esculin), 37° C., 30 hours; corrected to medium without carbohydrate. How it is done:
as §1

A further assay has as its system NCK2422 (ΔLBA0725). Briefly: Phenotypic growth analysis of deletion mutant (PTS EIICBA). It is filed as cell-based, Lactobacillus acidophilus. As to the method:
as §1
Construction of gene deletion mutants. The L. acidophilus NCFM genes LBA0225 and LBA0726, both encoding P-Bgl of glycoside hydrolase family 1 (GH1) enzymes in addition to the LBA0227 and LBA0725 genes encoding an EIIC and an EIICBA components of two PTS systems, respectively, were deleted using the upp-based counterselectable gene replacement system. Briefly, in-frame deletions were constructed by amplifying 650-750 bp of the up- and downstream flanking regions of the deletion targets with two primer pairs (e.g., LBA0225A/LBA0225B and LBA0225C/LBA0225D; Table 4). The resulting purified products were joined by splicing using overlap extension PCR (SOE-PCR63) and amplified to establish the deletion alleles. The SOE-PCR products, that include flanking restriction enzyme sites, were cloned within the BamHI and SacI/EcoRI sites of the pTRK935 integration vector and transformed into E. coli EC101. The resulting recombinant plasmids (pTRK1113-6) were confirmed by DNA sequencing and electroporated into L. acidophilus NCK1910 (Table 2) that contains the pTRK669 helper plasmid, and the recovery of the single- and double-crossover recombinants was performed as previously described. Recombinants carrying the new gene deletion alleles were isolated by colony PCR using primer pairs denoted up/down (e.g., LBA0225up/LBA0225down), which anneal to the flanking regions of the amplicons. Sequence integrity and in-frame deletions were verified by DNA sequencing employing the aforementioned primer pairs and primer denoted mid (e.g., LBA0225mid). The mutations were in-frame deletions of 90-96% of the coding regions.
To establish the functional significance of these two loci, single deletions of each PTS EII and P-Bgl gene, and a double deletion of both P-Bgl genes were constructed using the upp-based counter-selectable gene replacement system (Table 2) and the growth phenotypes of the mutant strains were analyzed (FIG. 3). Phenotypic growth analyses of deletion mutants of EII PTS transporters (FIGS. 3A, 3C, 3E, 3G, and 3I) and phospho-β-glucosidase (FIGS. 3B, 3D, 3F, 3H, and 3J) on the β-glucosides esculin, salicin, amygdalin and the disaccharides gentiobiose and cellobiose. The background Aupp strain is shown as a grey fill graph and the growth of the mutant strains is shown as: PTS EIIC (LBA0227, pink triangle), the phospho-β-glucosidase (LBA0225, light blue triangles), the PTS EIICBA (LBA0725, yellow squares), the second phospho-β-glucosidase (LBA0726, lilac squares) and the double phospho-β-glucosidase mutant (LBA0225/LBA0726, black stars). The color scheme is consistent with that used for the gene loci in FIG. 2.

The test system of a further assay is NCK2424 (ΔLBA0726). Briefly: Phenotypic growth analysis of deletion mutant (phospho-β-glucosidase). Conditions: compared with background Δupp strain. It is filed as cell-based, Lactobacillus acidophilus. As to the method:
as §1
Construction of gene deletion mutants. The L. acidophilus NCFM genes LBA0225 and LBA0726, both encoding P-Bgl of glycoside hydrolase family 1 (GH1) enzymes in addition to the LBA0227 and LBA0725 genes encoding an EIIC and an EIICBA components of two PTS systems, respectively, were deleted using the upp-based counterselectable gene replacement system. Briefly, in-frame deletions were constructed by amplifying 650-750 bp of the up- and downstream flanking regions of the deletion targets with two primer pairs (e.g., LBA0225A/LBA0225B and LBA0225C/LBA0225D; Table 4). The resulting purified products were joined by splicing using overlap extension PCR (SOE-PCR63) and amplified to establish the deletion alleles. The SOE-PCR products, that include flanking restriction enzyme sites, were cloned within the BamHI and SacI/EcoRI sites of the pTRK935 integration vector and transformed into E. coli EC101. […]
To establish the functional significance of these two loci, single deletions of each PTS EII and P-Bgl gene, and a double deletion of both P-Bgl genes were constructed using the upp-based counter-selectable gene replacement system (Table 2) and the growth phenotypes of the mutant strains were analyzed (FIG. 3). […]

Regarding `O=C[C@H](O)[C@@H](O)[C@H](O[C@@H]1O[C@H](CO)[C@@H](O)[C@H](O)[C@H]1O)[C@H](O)CO` [Cellobiose, reference compound], the “Growth (OD600 max class) of L. acidophilus NCFM” value in the assay with L. acidophilus NCFM was “++ (“++” signifies 0.6 > OD600 max > 0.3.)”. Moreover, the “Growth (OD600 max class) of L. acidophilus LA-1” value in the assay on L. acidophilus LA-1 is “+++ (“+++” signifies OD600 max > 0.6.)”. The “Growth (OD600 max class) of L. amyloverus ATCC 33620, DSM 20531” value in assay [1] was “+++ (“+++” signifies OD600 max > 0.6.)”. Moreover, the “Growth (OD600 max class) of L. animalis DSM 20602” value with L. animalis DSM 20602 is recorded as “+ (“+” signifies 0.3 > OD600 max > 0.1.)”. Also, the “Growth (OD600 max class) of L. crispatus ATCC 33820, DSM 20584” value in assay [2] was “− (“−” signifies OD600 max < 0.1.)”. For the same compound, the “Growth (OD600 max class) of L. fermentum ATCC 14931” value in the assay on L. fermentum ATCC 14931 was “− (“−” signifies OD600 max < 0.1.)”. The “Growth (OD600 max class) of L. gasseri ATCC 33323” value in the assay on L. gasseri ATCC 33323 is recorded as “++ (“++” signifies 0.6 > OD600 max > 0.3.)”. Further, the “Growth (OD600 max class) of L. helveticus CNRZ32” value in the assay with L. helveticus CNRZ32 is given as “+ (“+” signifies 0.3 > OD600 max > 0.1.)”. Besides, the “Growth (OD600 max class) of L. intestinalis Th4, ATCC 49335, DSM 6629” value in [3] is recorded as “− (“−” signifies OD600 max < 0.1.)”. Besides, the “Growth (OD600 max class) of L. jensenii ATCC 25258, 62G, DSM 20557” value in assay [4] was “++ (“++” signifies 0.6 > OD600 max > 0.3.)”. Moreover, in the assay with L. johnsonii ATCC 33200, the “Growth (OD600 max class) of L. johnsonii ATCC 33200” value was “+ (“+” signifies 0.3 > OD600 max > 0.1.)”. The “Growth (OD600 max class) of L. plantarum sp. plantarum ATCC 14917, LA70” value in assay [5] was “+++ (“+++” signifies OD600 max > 0.6.)”. Besides, the “Growth (OD600 max class) of L. reuteri (ATCC 23272, DSM 20016)” value in assay [6] is given as “− (“−” signifies OD600 max < 0.1.)”. In assay [7], the “Growth (OD600 max class) of L. rhanmosus GG (ATCC 53103)” value is listed as “+++ (“+++” signifies OD600 max > 0.6.)”. The “reduction of growth on inactivation of the EIICBA (LBA0725)” value with NCK2422 (ΔLBA0725) is “about 50%”. Also, the “growth of the ΔLBA0725 mutant (inactive PTS EIICBA)” value in the assay with NCK2422 (ΔLBA0725) (compared with background Δupp strain) is recorded as “moderately reduced”. In the assay with NCK2424 (ΔLBA0726), the “growth of the ΔLBA0726 mutant (P-Bgl)” value was “unaffected”.
